Source: patent publication US20250009742A1 (priority 2021, published 2025)

What was measured:
[1] = Cell viability assay (EZ-Cytox), cytotoxicity; assay type: cell-based; details: human, HepAD38 cells; for viability at 65 h, 100 µM: read-out: Cytotoxicity % Livability (@100 μM)
Experimental: HepAD38 cells were cultured for 2 days in Dulbecco's Modified Eagle's medium (Welgene, LM001-05) supplemented with 10% FBS without tetracycline. […] After 65 hours of treatment, viability was measured using EZ-Cytox cell viability assay kit (Daeil Lab Service) according to the manufacturer's instructions. The absorbance was measured at 450 nm using a spectrophotometer (Spark, Tecan).

[2] = tested on: intracellular HBV DNA; experiment: Real-time PCR for intracellular HBV DNA in HepAD38 cells; assay type: cell-based; details: Hepatitis B virus, HePAD38, 65 h, 65 hours treatment

Structure (SMILES): COc1ncc(N(Cc2cc(C#N)[nH]n2)C(=O)Nc2ccc(C#N)c(Cl)c2)cn1 [Example 9]
- CC50 at 65 h [1]: > 100000 nM
- viability at 65 h, 100 µM [1]: 105%
- IC50 [2]: 310 nM

Structure (SMILES): COc1ncc(N(Cc2cc(C(F)(F)F)[nH]n2)C(=O)Nc2cccc(C#N)n2)cn1 [Example 145, 3-(6-cyanopyridin-2-yl)-1-(2-methoxypyrimidin-5-yl)-1-((5-(trifluoromethyl)-1H-pyrazol-3-yl)methyl)urea]
- CC50 at 65 h [1]: > 100000 nM
- viability at 65 h, 100 µM [1]: 99.4%
- IC50 [2]: > 1100 nM

Structure (SMILES): COc1ncc(N(Cc2cc(C(F)(F)F)[nH]n2)C(=O)Nc2ccc(C#N)c(F)c2)cn1 [Example 156, 3-(4-cyano-3-fluorophenyl)-1-(2-methoxypyrimidin-5-yl)-1-((5-(trifluoromethyl)-1H-pyrazol-3-yl)methyl)urea]
- CC50 at 65 h [1]: > 100000 nM
- viability at 65 h, 100 µM [1]: 107%
- IC50 [2]: 83 nM

Structure (SMILES): COc1ncc(N(Cc2cc(C(F)(F)F)[nH]n2)C(=O)Nc2cc(F)c(F)c(F)n2)cn1 [Example 224, 1-(2-methoxypyrimidin-5-yl)-1-((5-(trifluoromethyl)-1H-pyrazol-3-yl)methyl)-3-(4,5,6-trifluoropyridin-2-yl)urea]
- CC50 at 65 h [1]: > 100000 nM
- viability at 65 h, 100 µM [1]: 100%
- IC50 [2]: 210 nM

Structure (SMILES): N#Cc1ccc(N(Cc2n[nH]c3c2COCC3)C(=O)Nc2ccc(F)c(Cl)c2)cn1 [Example 125, 3-(3-chloro-4-fluorophenyl)-1-(6-cyanopyridin-3-yl)-1-((1,4,6,7-tetrahydropyrano[4,3-c]pyrazol-3-yl)methyl)urea]
- CC50 at 65 h [1]: > 100000 nM
- viability at 65 h, 100 µM [1]: 109%
- IC50 [2]: 230 nM

Structure (SMILES): COc1ncc(N(Cc2cc(C(F)(F)F)[nH]n2)C(=O)Nc2cc(N(C)C)c(F)c(C#N)n2)cn1 [Example 164, 3-(6-cyano-4-(dimethylamino)-5-fluoropyridin-2-yl)-1-(2-methoxypyrimidin-5-yl)-1-((5-(trifluoromethyl)-1H-pyrazol-3-yl)methyl)urea]
- CC50 at 65 h [1]: > 100000 nM
- viability at 65 h, 100 µM [1]: 100%
- IC50 [2]: > 1100 nM

Structure (SMILES): COc1ncc(N(Cc2cc(C(F)(F)F)[nH]n2)C(=O)Nc2cccc(C#N)c2)cn1 [Example 144, 3-(3-cyanophenyl)-1-(2-methoxypyrimidin-5-yl)-1-((5-(trifluoromethyl)-1H-pyrazol-3-yl)methyl)urea]
- CC50 at 65 h [1]: 59900 nM
- viability at 65 h, 100 µM [1]: 6.3%
- IC50 [2]: 220 nM

Structure (SMILES): COc1ncc(N(Cc2cc(C#N)[nH]n2)C(=O)Nc2ccc(C#N)c(C(F)F)c2)cn1 [Example 153, 1-((5-cyano-1H-pyrazol-3-yl)methyl)-3-(4-cyano-3-(difluoromethyl)phenyl)-1-(2-methoxypyrimidin-5-yl)urea]
- CC50 at 65 h [1]: > 100000 nM
- viability at 65 h, 100 µM [1]: 94.2%
- IC50 [2]: 210 nM

Structure (SMILES): COc1cc(N(Cc2n[nH]c3c2OCCO3)C(=O)Nc2ccc(F)c(Cl)c2)ccn1 [Example 71, 3-(3-chloro-4-fluorophenyl)-1-((5,6-dihydro-1H-[1,4]dioxino[2,3-c]pyrazol-3-yl)methyl)-1-(2-methoxypyridin-4-yl)urea]
- CC50 at 65 h [1]: > 100000 nM
- IC50 [2]: 76 nM

Structure (SMILES): COc1cc(N(Cc2cc(C(F)(F)F)[nH]n2)C(=O)Nc2ccc(F)c(Cl)c2)ccn1 [Example 74, 3-(3-chloro-4-fluorophenyl)-1-(2-methoxypyridin-4-yl)-1-((5-(trifluoromethyl)-1H-pyrazol-3-yl)methyl)urea]
- CC50 at 65 h [1]: > 100000 nM
- viability at 65 h, 100 µM [1]: 55.6%
- IC50 [2]: 22 nM

Structure (SMILES): O=C(Nc1ccc(F)c(Cl)c1)N(Cc1n[nH]c2c1CCCO2)c1ccon1 [Example 136, 3-(3-chloro-4-fluorophenyl)-1-(isoxazol-3-yl)-1-((1,4,5,6-tetrahydropyrano[2,3-c]pyrazol-3-yl)methyl)urea]
- CC50 at 65 h [1]: 64000 nM
- viability at 65 h, 100 µM [1]: 7.3%
- IC50 [2]: 48 nM

Structure (SMILES): COc1ccc(N(Cc2n[nH]c3c2COCC3)C(=O)Nc2ccc(F)c(Cl)c2)cn1 [Example 55, 3-(3-chloro-4-fluorophenyl)-1-(6-methoxypyridin-3-yl)-1-((1,4,6,7-tetrahydropyrano[4,3-c]pyrazol-3-yl)methyl)urea]
- CC50 at 65 h [1]: > 100000 nM
- viability at 65 h, 100 µM [1]: 102%
- IC50 [2]: 17 nM

Structure (SMILES): COc1ncc(N(Cc2cc(C(F)(F)F)[nH]n2)C(=O)Nc2cccc(C(F)(F)F)n2)cn1 [Example 225, 1-(2-methoxypyrimidin-5-yl)-1-((5-(trifluoromethyl)-1H-pyrazol-3-yl)methyl)-3-(6-(trifluoromethyl)pyridin-2-yl)urea]
- CC50 at 65 h [1]: > 100000 nM
- viability at 65 h, 100 µM [1]: 105%
- IC50 [2]: 210 nM

Structure (SMILES): COc1ncc(N(Cc2cc(C(F)(F)F)[nH]n2)C(=O)Nc2nccc(F)c2F)cn1 [Example 173, 3-(3,4-difluoropyridin-2-yl)-1-(2-methoxypyrimidin-5-yl)-1-((5-(trifluoromethyl)-1H-pyrazol-3-yl)methyl)urea]
- CC50 at 65 h [1]: > 100000 nM
- IC50 [2]: > 1100 nM

Structure (SMILES): COc1ncc(N(Cc2cc(C(F)F)[nH]n2)C(=O)Nc2cccc(C(F)F)n2)cn1 [Example 179, 1-((5-(difluoromethyl)-1H-pyrazol-3-yl)methyl)-3-(6-(difluoromethyl)pyridin-2-yl)-1-(2-methoxypyrimidin-5-yl)urea]
- CC50 at 65 h [1]: > 100000 nM
- viability at 65 h, 100 µM [1]: 79.3%
- IC50 [2]: 700 nM

Structure (SMILES): COc1ccc(N(Cc2cc(C(F)F)[nH]n2)C(=O)Nc2ccc(F)c(Cl)c2)cn1 [Example 72, 3-(3-chloro-4-fluorophenyl)-1-((5-(difluoromethyl)-1H-pyrazol-3-yl)methyl)-1-(6-methoxypyridin-3-yl)urea]
- CC50 at 65 h [1]: > 66600 nM
- viability at 65 h, 100 µM [1]: 48.5%
- IC50 [2]: 48 nM

Structure (SMILES): COc1ncc(N(Cc2cc(C(F)(F)F)[nH]n2)C(=O)Nc2ccnc(C#N)c2)cn1 [Example 146, 3-(2-cyanopyridin-4-yl)-1-(2-methoxypyrimidin-5-yl)-1-((5-(trifluoromethyl)-1H-pyrazol-3-yl)methyl)urea]
- CC50 at 65 h [1]: > 100000 nM
- viability at 65 h, 100 µM [1]: 112%
- IC50 [2]: 120 nM

Structure (SMILES): COc1ncc(N(Cc2n[nH]c(C(F)F)c2C(C)(C)O)C(=O)Nc2ccc(F)c(Cl)c2)cn1 [Example 92, 3-(3-chloro-4-fluorophenyl)-1-((5-(difluoromethyl)-4-(2-hydroxypropan-2-yl)-1H-pyrazol-3-yl)methyl)-1-(2-methoxypyrimidin-5-yl)urea]
- CC50 at 65 h [1]: > 100000 nM
- IC50 [2]: > 1100 nM

Structure (SMILES): COc1ncc(N(Cc2cc(C(F)(F)F)[nH]n2)C(=O)Nc2cc(F)ccn2)cn1 [Example 187, 3-(4-fluoropyridin-2-yl)-1-(2-methoxypyrimidin-5-yl)-1-((5-(trifluoromethyl)-1H-pyrazol-3-yl)methyl)urea]
- CC50 at 65 h [1]: > 100000 nM
- IC50 [2]: > 1100 nM

Structure (SMILES): COc1cc(N(Cc2cc(C(F)F)[nH]n2)C(=O)Nc2ccc(F)c(Cl)c2)cnn1 [Example 99, 3-(3-chloro-4-fluorophenyl)-1-((5-(difluoromethyl)-1H-pyrazol-3-yl)methyl)-1-(6-methoxypyridazin-4-yl)urea]
- CC50 at 65 h [1]: > 100000 nM
- viability at 65 h, 100 µM [1]: 83.4%
- IC50 [2]: 890 nM

Structure (SMILES): COc1ncc(N(Cc2cc(C(F)(F)F)[nH]n2)C(=O)Nc2ccc(C(F)F)c(F)c2)cn1 [Example 206, 3-(4-(difluoromethyl)-3-fluorophenyl)-1-(2-methoxypyrimidin-5-yl)-1-((5-(trifluoromethyl)-1H-pyrazol-3-yl)methyl)urea]
- CC50 at 65 h [1]: > 100000 nM
- viability at 65 h, 100 µM [1]: 89.6%
- IC50 [2]: 180 nM

Structure (SMILES): CS(=O)(=O)Nc1ccc(N(Cc2n[nH]c3c2CCCO3)C(=O)Nc2ccc(F)c(Cl)c2)cn1 [Example 18, N-(5-(3-(3-chloro-4-fluorophenyl)-1-((1,4,5,6-tetrahydropyrano[2,3-c]pyrazol-3-yl)methyl)ureido)pyridin-2-yl)methanesulfonamide]
- CC50 at 65 h [1]: > 100000 nM
- IC50 [2]: > 1100 nM

Structure (SMILES): COc1ncc(N(Cc2cc(C(F)(F)F)[nH]n2)C(=O)Nc2cc(C(F)F)c(F)cn2)cn1 [Example 192, 3-(4-(difluoromethyl)-5-fluoropyridin-2-yl)-1-(2-methoxypyrimidin-5-yl)-1-((5-(trifluoromethyl)-1H-pyrazol-3-yl)methyl)urea]
- CC50 at 65 h [1]: > 100000 nM
- viability at 65 h, 100 µM [1]: 104%
- IC50 [2]: 59 nM

Structure (SMILES): COc1ncc(N(Cc2cc(C(F)(F)F)[nH]n2)C(=O)Nc2cccc(C(F)F)c2)cn1 [Example 176, 3-(3-(difluoromethyl)phenyl)-1-(2-methoxypyrimidin-5-yl)-1-((5-(trifluoromethyl)-1H-pyrazol-3-yl)methyl)urea]
- CC50 at 65 h [1]: > 100000 nM
- viability at 65 h, 100 µM [1]: 53.5%
- IC50 [2]: 36 nM

Structure (SMILES): COc1ncc(N(Cc2cc(C#N)[nH]n2)C(=O)Nc2cccc(C(F)F)c2)cn1 [Example 180, 1-((5-cyano-1H-pyrazol-3-yl)methyl)-3-(3-(difluoromethyl)phenyl)-1-(2-methoxypyrimidin-5-yl)urea]
- CC50 at 65 h [1]: > 100000 nM
- viability at 65 h, 100 µM [1]: 88.1%
- IC50 [2]: 64 nM

Structure (SMILES): N#Cc1cc(N(Cc2n[nH]c3c2CCCO3)C(=O)Nc2ccc(F)c(Cl)c2)ccn1 [Example 122, 3-(3-chloro-4-fluorophenyl)-1-(2-cyanopyridin-4-yl)-1-((1,4,5,6-tetrahydropyrano[2,3-c]pyrazol-3-yl)methyl)urea]
- CC50 at 65 h [1]: > 100000 nM
- IC50 [2]: 350 nM

Structure (SMILES): COc1ccc(N(Cc2n[nH]c(C(F)(F)F)c2C)C(=O)Nc2ccc(F)c(Cl)c2)cn1 [Example 78, 3-(3-chloro-4-fluorophenyl)-1-(6-methoxypyridin-3-yl)-1-((4-methyl-5-(trifluoromethyl)-1H-pyrazol-3-yl)methyl)urea]
- CC50 at 65 h [1]: > 100000 nM
- viability at 65 h, 100 µM [1]: 94%
- IC50 [2]: 30.3 nM

Structure (SMILES): CNS(=O)(=O)c1ccc(N(Cc2n[nH]c3c2CCOC3)C(=O)Nc2ccc(F)c(Cl)c2)cc1 [Example 23, 4-(3-(3-chloro-4-fluorophenyl)-1-((1,4,5,7-tetrahydropyrano[3,4-c]pyrazol-3-yl)methyl)ureido)-N-methylbenzenesulfonamide]
- CC50 at 65 h [1]: > 100000 nM
- IC50 [2]: > 1100 nM
